We go through 18 compounds from article PMC11728001, “Design, Synthesis, and Biological Evaluation of Novel Urea-Containing Carnosic Acid Derivatives with Anticancer Activity” (International Journal of Molecular Sciences, 2024).

For orientation: IC50 means the concentration at which inhibition is half-maximal.

The test system of experiment [1] is HCT116 colorectal cancer cell line. In words: MTT cell viability assay, HCT116. Particulars: Homo sapiens, HCT-116, 72 h incubation, mean ± SD. Type of experiment: cell-based. Here is the method:
The antiproliferative activity of CA 1 and its derivatives was evaluated against a colorectal cancer (CRC) cell line (HCT116) using the MTT assay. The anticancer drug cisplatin was used as the reference drug.
(§1) The effect of the compounds on cell viability was evaluated using the MTT assay. HCT116 (3000 cells/well), SW620 (8000 cells/well), SW480 (6000 cells/well), Caco-2 (4000 cells/well), A375 (1500 cells/well), MiaPaca-2 (2000 cells/well), and BJ (10,000 cells/well) cells were seeded in 96-well plates. After 24 h, the growth medium was replaced with a fresh medium containing the desired concentration of the compound or DMSO (control). After 72 h of incubation, the supernatant was removed and 100 µL of a mixture (1:1) of filtered MTT solution (1 mg/mL in PBS) with FBS-free medium was added to each well. After 1 h of incubation at 37 °C, the mixture was removed and 100 µL of DMSO was added to each well to dissolve the formed formazan crystals. Absorbance was immediately measured at 570 nm using a Benchmark Plus Microplate Reader (Bio-Rad Laboratories, Hercules, CA, USA). IC50 values were calculated using GraphPad Prism 9 software (GraphPad Software, San Diego, CA, USA) and expressed as the mean ± standard deviation (SD) of at least three independent experiments.
Background: Tetrazolium assays rely on reduction of a dye to a coloured formazan, in cell work by metabolically active cells.

Experiment [2] concerns MiaPaca-2 pancreatic cancer cells. In words: MTT cell viability assay, MiaPaca-2. Type of experiment: cell-based. The settings on record: Homo sapiens, MIA PaCa-2, 72 h incubation, mean ± SD. As for the experimental part: as §1
Another experiment has as its system SW480 cells. Briefly: MTT cell viability assay, SW480. Type of experiment: cell-based. Particulars: Homo sapiens, 72 h incubation, mean ± SD. Here is the method:
as §1

For experiment [3], the system named is SW620 cells. In words: MTT cell viability assay, SW620. Type of experiment: cell-based. The settings on record: Homo sapiens, SW-620, 72 h incubation, mean ± SD. As for the experimental part:
as §1

Experiment [4] relates to A375 melanoma cells. Briefly: MTT cell viability assay, A375. Type of experiment: cell-based. The settings on record: Homo sapiens, A-375, 72 h incubation, mean ± SD. As for the experimental part:
as §1

A further experiment concerns Caco-2 cells. Briefly: MTT cell viability assay, Caco-2. Particulars: Homo sapiens, 72 h incubation, mean ± SD. Type of experiment: cell-based. As for the experimental part:
as §1

Experiment [5] deals with A375 melanoma cells. More on the design: method as in PMID 23229057. Particulars: from literature, same methodology; cited from earlier work.
Experiment [6] relates to BJ non-tumoral fibroblast cell line. Details: method as in PMID 41058673. Particulars: obtained previously by the research group, same methodology; cited from earlier work.
The test system of experiment [7] is SW620 cells. More on the design: method as in PMID 31909511. Particulars: obtained previously by the research group, same methodology; cited from earlier work.
The test system of experiment [8] is HCT116 colorectal cancer cell line. Details: method as in PMID 29922789. Particulars: MTT, 72 h; obtained previously by the research group, same methodology; cited from earlier work.
Experiment [9] concerns MiaPaca-2 pancreatic cancer cells. More on the design: method as in PMID 18007390. Particulars: from literature, same methodology; cited from earlier work.

Where two headings read alike, the source gives them in different places. Some results are limits rather than exact numbers.

For the compound `CC(=O)Oc1c(C(C)C)cc2c(c1OC(C)=O)[C@@]1(NC(=O)NCC(C)C)CCCC(C)(C)[C@@H]1CC2` [Compound 10, (4bR,8aS)-4b-(3-isobutylureido)-2-isopropyl-8,8-dimethyl-4b,5,6,7,8,8a,9,10-octahydrophenanthrene-3,4-diyl diacetate], the IC50 in [1] worked out at 22 ± 2 µM.
As to `CC(C)c1cc2c(c(O)c1O)[C@@]1(C(=O)O)CCCC(C)(C)[C@@H]1CC2` [CA 1, Carnosic acid], the IC50 amounted to 21 ± 2 µM in experiment [2]; 42 ± 4 µM in experiment [1]; 21.8 ± 0.7 µM in the experiment with SW480 cells; 18 ± 2 µM with SW620 cells [3]; 27.6 ± 0.5 µM with A375 melanoma cells [4]; 34 ± 2 µM in the experiment with Caco-2 cells.
The compound `CNC(=O)N[C@]12CCCC(C)(C)[C@@H]1CCc1cc(C(C)C)c(OC(C)=O)c(OC(C)=O)c12` [Compound 6, (4bR,8aS)-2-isopropyl-8,8-dimethyl-4b-(3-methylureido)-4b,5,6,7,8,8a,9,10-octahydrophenanthrene-3,4-diyl diacetate] showed an IC50 in [1] of 55 ± 5 µM.
On to `CC(=O)Oc1c(C(C)C)cc2c(c1OC(C)=O)[C@@]1(NC(=O)NCCc3ccccc3)CCCC(C)(C)[C@@H]1CC2` [Compound 13, (4bR,8aS)-2-isopropyl-8,8-dimethyl-4b-(3-phenethylureido)-4b,5,6,7,8,8a,9,10-octahydrophenanthrene-3,4-diyl diacetate], for which the IC50 is 14 ± 2 µM in experiment [1], 8.6 ± 0.3 µM in the experiment with SW480 cells, 9 ± 1 µM in the experiment with SW620 cells [3] and 10.9 ± 0.6 µM in the experiment with Caco-2 cells.
As for `CC(=O)Oc1c(C(C)C)cc2c(c1OC(C)=O)[C@@]1(NC(=O)NCC3CCOCC3)CCCC(C)(C)[C@@H]1CC2` [Compound 18, (4bR,8aS)-2-isopropyl-8,8-dimethyl-4b-(3-((tetrahydro-2H-pyran-4-yl)methyl)ureido)-4b,5,6,7,8,8a,9,10-octahydrophenanthrene-3,4-diyl diacetate], in [1], half-maximal inhibition (IC50) required 51 ± 5 µM.
Still for that read-out and setting: the result for `CC(=O)Oc1c(C(C)C)cc2c(c1OC(C)=O)[C@@]1(NC(=O)NCc3ccoc3)CCCC(C)(C)[C@@H]1CC2` [Compound 17, (4bR,8aS)-4b-(3-(furan-3-ylmethyl)ureido)-2-isopropyl-8,8-dimethyl-4b,5,6,7,8,8a,9,10-octahydrophenanthrene-3,4-diyl diacetate] reads 21 ± 2 µM; that for `CC(=O)Oc1c(C(C)C)cc2c(c1OC(C)=O)[C@@]1(N=C=O)CCCC(C)(C)[C@@H]1CC2` [Compound 5, (4bR, 8aS)-4b-Isocyanato-2-isopropyl-8,8-dimethyl-4b,5,6,7,8,8a,9,10-octahydrophenanthrene-3,4-diyl diacetate], 28 ± 3 µM.
`CCNC(=O)N[C@]12CCCC(C)(C)[C@@H]1CCc1cc(C(C)C)c(OC(C)=O)c(OC(C)=O)c12` [Compound 7, (4bR,8aS)-4b-(3-Ethylureido)-2-isopropyl-8,8-dimethyl-4b,5,6,7,8,8a,9,10-octahydrophenanthrene-3,4-diyl diacetate]: in [1], the IC50 came to 44 ± 4 µM.
In the case of `CC(=O)Oc1c(C(C)C)cc2c(c1OC(C)=O)[C@@]1(NC(=O)NCCCN(C)c3ccccc3)CCCC(C)(C)[C@@H]1CC2` [Compound 16, (4bR,8aS)-2-isopropyl-8,8-dimethyl-4b-(3-(3-(methyl(phenyl)amino)propyl)ureido)-4b,5,6,7,8,8a,9,10-octahydrophenanthrene-3,4-diyl diacetate], the IC50 stood at 9.3 ± 0.4 µM in [2]; 12 ± 0.5 µM in experiment [1]; 7.6 ± 0.6 µM in the experiment with SW480 cells; 6.4 ± 0.4 µM in the experiment on SW620 cells [3]; 7.6 ± 0.6 µM with A375 melanoma cells [4]; 9.6 ± 0.6 µM with Caco-2 cells.
In experiment [1], `CC(=O)Oc1c(C(C)C)cc2c(c1OC(C)=O)[C@@]1(NC(=O)NCC(C)(C)CN(C)C)CCCC(C)(C)[C@@H]1CC2` [Compound 11, (4bR,8aS)-4b-(3-(3-(dimethylamino)-2,2-dimethylpropyl)ureido)-2-isopropyl-8,8-dimethyl-4b,5,6,7,8,8a,9,10-octahydrophenanthrene-3,4-diyl diacetate] had an IC50 of 30 ± 1 µM.
Still for that read-out and setting: as for `CC(=O)Oc1c(C(C)C)cc2c(c1OC(C)=O)[C@@]1(NC(=O)NC3COC3)CCCC(C)(C)[C@@H]1CC2` [Compound 19, (4bR,8aS)-2-isopropyl-8,8-dimethyl-4b-(3-(oxetan-3-yl)ureido)-4b,5,6,7,8,8a,9,10-octahydrophenanthrene-3,4-diyl diacetate], the figure is over 60 µM; as for `CC(=O)Oc1c(C(C)C)cc2c(c1OC(C)=O)[C@@]1(NC(=O)NCC3(C)COC3)CCCC(C)(C)[C@@H]1CC2` [Compound 20, (4bR,8aS)-2-isopropyl-8,8-dimethyl-4b-(3-((3-methyloxetan-3-yl)methyl)ureido)-4b,5,6,7,8,8a,9,10-octahydrophenanthrene-3,4-diyl diacetate], 46 ± 2 µM.
Still for that read-out and setting: as for `CCCNC(=O)N[C@]12CCCC(C)(C)[C@@H]1CCc1cc(C(C)C)c(OC(C)=O)c(OC(C)=O)c12` [Compound 8, (4bR,8aS)-2-isopropyl-8,8-dimethyl-4b-(3-propylureido)-4b,5,6,7,8,8a,9,10-octahydrophenanthrene-3,4-diyl diacetate], the figure is 31 ± 1 µM; as for `CC(=O)Oc1c(C(C)C)cc2c(c1OC(C)=O)[C@@]1(C(=O)O)CCCC(C)(C)[C@@H]1CC2` [Compound 2, (4aR,10aS)-5,6-Diacetoxy-7-isopropyl-1,1-dimethyl-1,3,4,9,10,10a-hexahydrophenanthrene-4a(2H)-carboxylic acid], 44 ± 4 µM.
For `N.N.[Cl][Pt][Cl]` [Cisplatin, cisplatin], the IC50 in the experiment with A375 melanoma cells [5] is 3 ± 1 µM; in experiment [6] it was 10 ± 2 µM; with SW620 cells [7], 1.4 ± 0.5 µM; in [8], 21 ± 1 µM; in experiment [9] it was 5 ± 1 µM.
As to `CC(=O)Oc1c(C(C)C)cc2c(c1OC(C)=O)[C@@]1(NC(=O)NCc3ccncc3)CCCC(C)(C)[C@@H]1CC2` [Compound 15, (4bR,8aS)-2-isopropyl-8,8-dimethyl-4b-(3-(pyridin-4-ylmethyl)ureido)-4b,5,6,7,8,8a,9,10-octahydrophenanthrene-3,4-diyl diacetate], 33 ± 2 µM corresponded to half-maximal inhibition in [1] (IC50).
`CONC(=O)N[C@]12CCCC(C)(C)[C@@H]1CCc1cc(C(C)C)c(OC(C)=O)c(OC(C)=O)c12` [Compound 12, (4bR,8aS)-2-isopropyl-4b-(3-methoxyureido)-8,8-dimethyl-4b,5,6,7,8,8a,9,10-octahydrophenanthrene-3,4-diyl diacetate] registered an IC50 in experiment [1] of 41 ± 3 µM.
Same read-out and setting: the result for `CCCCN(C)C(=O)N[C@]12CCCC(C)(C)[C@@H]1CCc1cc(C(C)C)c(OC(C)=O)c(OC(C)=O)c12` [Compound 9, (4bR,8aS)-4b-(3-butyl-3-methylureido)-2-isopropyl-8,8-dimethyl-4b,5,6,7,8,8a,9,10-octahydrophenanthrene-3,4-diyl diacetate] reads 22 ± 1 µM.
